From ChEMBL document CHEMBL1165981, “Identification of novel quinazolin-4(3H)-ones as inhibitors of thermolysin, the prototype of the M4 family of proteinases” (Bioorg Med Chem, 2010)

Tests used:
Thermolysin [1] = target: T1, Thermolysin (Bacillus thermoproteolyticus, UniProt P00800); assay: Inhibition of Bacillus thermoproteolyticus thermolysin after 15 mins by microplate spectrophotometric analysis in presence of 1.0 mM substrate FaGLa
T1 sequence (P00800 whole entry): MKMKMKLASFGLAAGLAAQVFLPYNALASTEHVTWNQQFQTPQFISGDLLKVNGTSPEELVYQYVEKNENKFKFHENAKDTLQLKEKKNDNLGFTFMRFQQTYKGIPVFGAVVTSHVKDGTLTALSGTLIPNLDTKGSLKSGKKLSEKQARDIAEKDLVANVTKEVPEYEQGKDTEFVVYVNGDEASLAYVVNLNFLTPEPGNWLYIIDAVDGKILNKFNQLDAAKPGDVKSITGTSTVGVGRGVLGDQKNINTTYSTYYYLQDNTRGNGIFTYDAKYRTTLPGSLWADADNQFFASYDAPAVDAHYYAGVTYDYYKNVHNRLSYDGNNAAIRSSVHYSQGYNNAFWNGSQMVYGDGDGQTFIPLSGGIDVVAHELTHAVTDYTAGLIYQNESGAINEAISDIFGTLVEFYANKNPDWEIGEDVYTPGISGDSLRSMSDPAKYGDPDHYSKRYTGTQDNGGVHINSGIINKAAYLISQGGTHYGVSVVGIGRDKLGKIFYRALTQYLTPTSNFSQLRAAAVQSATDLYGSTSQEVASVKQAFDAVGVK

Thermolysin [2] = target: T1, Thermolysin; assay: Inhibition of Bacillus thermoproteolyticus thermolysin after 15 mins by microplate spectrophotometric analysis in presence of 0.5 to 2 mM substrate FaGLa

SMILES | IC50 (Thermolysin [1]; read-out: IC50) | Ki (Thermolysin [2]) | IC50 (Thermolysin [1])
Nn1c(-c2ccc(Cl)cc2)nc2ccccc2c1=O | 12700 µM | 10100 µM | 
Cc1ccc(-c2nc3ccccc3c(=O)n2CCCN)cc1 |  |  | Not Active
O=c1c2ccccc2nc2n1NC(c1ccccc1)N(/N=C/c1ccccc1)C2 (stereo unspecified) |  |  | Not Active
O=c1c2ccccc2nc(C(F)(F)F)n1-c1ccccc1 | 0.0115 µM | 0.0115 µM | 
CCc1nc2ccccc2c(=O)[nH]1 |  |  | Not Active
CC(=O)Nn1c(C)nc2ccccc2c1=O |  |  | Not Active
Cc1nc2ccccc2c(=O)n1NC(=O)c1ccccc1 |  |  | Not Active
Cc1nc2ccccc2c(=O)n1NC(=O)CCl |  |  | Not Active
O=c1[nH]c(-c2ccc(Cl)cc2)nc2ccccc12 | 1.25 µM | 1.25 µM | 
Cc1cc(C)c(-n2c(-c3ccccc3)nc3ccccc3c2=O)c(C)c1 |  |  | Not Active
NNc1nc2ccccc2c(=O)n1N |  |  | Not Active
CO/C(C)=N/n1c(-c2ccccc2)nc2ccccc2c1=O | 123000 µM | 106000 µM | 
Cc1nc2ccccc2c(=O)n1N=C(N)N |  |  | Not Active
Cc1nc2ccccc2c(=O)n1N | 54.9 µM | 54.9 µM | 
Cc1ccc(-c2nc3ccccc3c(=O)n2-c2nccs2)cc1 | 76.8 µM | 59.3 µM | 
O=c1[nH]c(-c2ccc([N+](=O)[O-])cc2)nc2ccccc12 |  |  | Not Active

SMILES | IC50 (Thermolysin [1]; read-out: IC50) | Ki (Thermolysin [2]) | IC50 (Thermolysin [1])
Cc1ccc(-c2nc3ccccc3c(=O)n2CCN)cc1 |  |  | Not Active
Nn1c(-c2ccc([N+](=O)[O-])cc2)nc2ccccc2c1=O | 3120 µM | 3120 µM | 
O=c1c2ccccc2ncn1CCO |  |  | Not Active
Nn1c(-c2ccccc2)nc2ccccc2c1=O |  |  | Not Active
O=c1c2ccccc2nc(-c2ccccc2)n1-c1ccc(I)cc1 |  |  | Not Active
C/C(=N\n1c(-c2ccccc2)nc2ccccc2c1=O)Nc1cccc2ccccc12 |  |  | Not Active
CCOC(=O)Cc1nc2ccccc2c(=O)[nH]1 |  |  | Not Active
CC(C)=NN1C(=O)c2ccccc2NC1(C)C | 0.248 µM | 0.243 µM | 
Cc1ccc(C(=O)Nn2c(C)nc3ccccc3c2=O)cc1 |  |  | Not Active
O=C(Nc1ccccc1C(=O)NCCCn1c(-c2ccccc2)nc2ccccc2c1=O)c1ccccc1 |  |  | Not Active
CC(=O)Nn1c(-c2ccccc2)nc2ccccc2c1=O |  |  | Not Active
Cc1nc2ccccc2c(=O)n1CCO |  |  | Not Active
COC(=O)c1ccccc1NC(=O)C(F)(F)F |  |  | Not Active
Nn1c(C(F)(F)F)nc2ccccc2c1=O | 37.9 µM | 37.9 µM | 
O=c1c2ccccc2nc(-c2ccccc2)n1-c1nccs1 |  |  | Not Active
O=C1c2ccccc2NC(c2ccccc2)N1/N=C/c1ccccc1 (stereo unspecified) |  |  | Not Active
